Assay results taken from paper PMC6750642, “Direct Measurement of Amorphous Solubility” (Analytical Chemistry, 2019).
Where two headings read alike, the source gives them in different places. Marks after values point to notes of the source that are not given here.

Columns and labels:
[1] = cited from earlier work
[2] = Image-based single particle analysis (SPA) solubility measurement of amorphous and crystalline samples; type: physicochemical; conditions: for DS (degree of supersaturation, amorphous vs crystalline solubility), SPA method: Milli-Q ultrapure water, type 1
Protocol: The constant flow continuously displaces drug molecules from the surface of the dissolving particle. […] (Figure 1). The solubilities of all five crystalline and amorphous samples were measured in triplicate in Milli-Q water. […] The obtained solubility values, therefore, were the average of three independent measurements, where at least ten particles per single measurement were analyzed. Additionally, amorphous IND was also measured in HCl buffer pH 2.0 in the presence of 0.1% (w/v) polyvinylpyrolidone (PVP). The additional measurement using PVP was performed in order to assess the need for a crystallization inhibitor in the SPA experiments. The solubilities of the amorphous and crystalline samples were measured in Milli-Q water and USP buffers as soon as the solvent came in contact with particles.

[3] = cited from earlier work; remark: listed apart in the source
[4] = Theoretical estimation of DS by the Hoffman method from DSC and DVS data; type: physicochemical
Protocol: Samples of 5–10 mg were tightly packed into standard aluminum crucibles (40 μL) with pierced lids. The samples were equilibrated at 25 °C for 3 min and then linearly heated with a heating rate of 10 °C/min to 20 °C above their respective melting points. Measurements of both amorphous and crystalline samples were recorded in triplicate, and thermal events were analyzed using the STARe software (Mettler-Toledo, Greifensee, Switzerland). Temperatures and melting enthalpies were used to estimate the free energy difference between the amorphous and crystalline forms.
The water sorption isotherms of the five amorphous drug samples were determined using the method previously described by Murdande et al.[10] A VTI-SA+ Vapor Sorption Analyzer (TA Instruments, New Castle, DE, USA) was used to measure the moisture sorption profiles of the amorphous samples. Approximately 10 mg of amorphous sample was placed into a glass holder. To reduce the possibility of sample crystallization during the measurement, no drying step was used. The DVS measurements were performed at 25 °C from 0 to 95% relative humidity (in 10% steps up to 90%). The equilibrium criterion was 0.001% weight change in 5 min with a maximum step time of 150 min. The instrument is calibrated once a month.
According to Hoffman, the difference in Gibbs free energy (ΔG) between the crystalline and the amorphous form can be estimated using eq 4.[15]Hm, Tm, and T are the melting enthalpy of the crystalline form, the melting temperature of the crystalline form, and the experimental temperature measured in Kelvin, respectively. Using the ΔG estimation, the maximum DS due to amorphization was predicted according to Hancock and Parks[9] and corrected for the impact of water on the amorphous solute as proposed by Murdande et al. through eq 5.[10]R and exp(−I(a2)) are the gas constant and a correction factor obtained from DVS measurements, as shown by Murdande et al.[10]

[5] = Dynamic water sorption (DVS) of amorphous samples; type: physicochemical; conditions: above RH 80%, 25 °C

Row | DS (degree of supersaturation, amorphous vs crystalline solubility), SPA method [2] | DS, theoretical estimation (Hoffman method with correction for the effect of water on the amorphous solute) [4] | DS, theoretical estimation based solely on ΔG, without the correction for the adsorbed water [4] | sample mass loss in DVS experiment (crystallization, water expelled) [5] [%] | effect of PVP in the dissolution medium on the solubility of the amorphous form, SPA method ([2]; USP HCl buffer pH 2.0 with vs without PVP 0.1% (w/v)) | Compound | DS range reported in the literature ([1]; temperature range of 34–75 °C) | DS, literature, dissolution in water ([3]; distilled water) | DS, literature, theoretical estimation [1] | DS, literature, dissolution in water ([3]; deionized water) | DS, literature, theoretical estimation ([1]; approach by Almeida et al.)
1 | 18.9 | 21.7 | – | – | – | Cc1ccc(-c2cc(C(F)(F)F)nn2-c2ccc(S(N)(=O)=O)cc2)cc1 [CEL, Celecoxib] | 7–21 | 3.1 ^c^, ^h | – | – | –
2 | – | 23.9 | – | – | – | C#C[C@]1(O)CC[C@H]2[C@@H]3CCC4=Cc5oncc5C[C@]4(C)[C@H]3CC[C@@]21C [DAN, Danazol] | – | – | 26.5 ^i | 3.0 ^d^, ^i | –
3 | 15.3 | 6.6 | 15.2 | 0.39 | – | OCCN(CCO)c1nc(N2CCCCC2)c2nc(N(CCO)CCO)nc(N3CCCCC3)c2n1 [DIP, Dipyridamole] | – | – | 10 ^k | – | –
4 | 29.8 | 34.6 | – | – | – | COC1=CC(=O)C[C@@H](C)[C@]12Oc1c(Cl)c(OC)cc(OC)c1C2=O [GRI, griseofulvin] | – | – | 29.1 | 1.4 ^d^, ^i | 30.9
5 | 20.4 | 18.7 | – | – | did not affect | COc1ccc2c(c1)c(CC(=O)O)c(C)n2C(=O)c1ccc(Cl)cc1 [IND, indomethacin] | – | – | 20.8 ^i | 4.9 ^d^, ^i | –
